Consider 1 molecule from patent US20250195457A1, “PHARMACEUTICAL COMPOSITION FOR TREATMENT OF PARKINSON'S DISEASE” (Eisai R&D Management Co., Ltd., priority 2022, published 2025).

The assay has as its system levodopa-induced dyskinesia model cynomolgus monkeys. As to the kind of experiment: Test Example 3: dyskinesia score in levodopa-induced dyskinesia model monkeys. It is filed as in vivo. The arrangement: key to Dyskinesia score: dyskinesia score 0 = normal home cage activity to 4 = severe stereotypy. The protocol: A levodopa/carbidopa mixture containing 80 mg/kg of levodopa and 20 mg/kg of carbidopa and having a solution volume of 5 mL/kg was orally administered to Parkinson's disease model cynomolgus monkeys at the age of 6 to 7 prepared in the same way as in Test Example 1 for 8 consecutive days to provide levodopa-induced dyskinesia model cynomolgus monkeys. The induction of dyskinesia was determined based on the “dyskinesia score” in accordance with the following behavior evaluation items in the following test on activity in home cages, and animals having dyskinesia scores of 1 or more on day 7 of the repeated administration of the levodopa/carbidopa mixture were used.
Home cage activities corresponding to dyskinesia scores • 0: Normal home cage activity (exploring or inactivity, able to drink water, plays with mirror or caging, climbing of the walls). • 1: Some interference with normal activity, however able to climb walls. • 2: Occasional exploration of cage, some stereotypy • 3: Little normal movement, lack of climbing of walls, clear stereotypy • 4: Lack of normal home cage activity, lack of normal exploratory behavior and movement, severe stereotypy
Seven levodopa-induced dyskinesia model cynomolgus monkeys were randomized into 4 groups of approximately equal mean and variance in terms of body weight. On subsequent cycles 2, 3, and 4, the animals were crossed over to receive the other treatment. A wash out period of one week or more was set between cycles.
One of the seven animals was excluded from the evaluation of cycles 3 and 4 because it was unable to get up due to dyskinesia on day 8 in cycle 3 of the repeated administration of the levodopa/carbidopa mixture.
By the end of the study, each animal had received all the four treatments. Each substance was administered 1 hr. after the administration on day 8 of the repeated administration of the levodopa/carbidopa mixture. As a vehicle, an aqueous solution containing 0.43% (w/v) methyl cellulose 400, 10% (v/v) dimethyl sulfoxide (DMSO), and 4.5% (w/v) Cremophor (R) were used.
Before the administration, and 1 hr., 4 hrs., and 24 hrs. after the administration of the test substances, the dyskinesia scores of the animals were evaluated. The behavior evaluation was performed in a blinded manner. The dyskinesia scores of the groups were compared using Steel's test. The p-values of less than 0.05 were considered to be statistically significant.

Regarding `NS(=O)(=O)N[C@H]1c2c(F)cc(F)cc2CC1(F)F` [Compound (I), N-[(1S)-2,2,5,7-tetrafluoro-2,3-dihydro-1H-inden-1-yl]sulfamide], the Dyskinesia score reads like this: (Compound (I) 25 mg/kg (G2), 1 hr. after administration) 2.0 ± 0.0; (Compound (I) 25 mg/kg (G2), 4 hrs. after administration) 1.6 ± 0.2; (Compound (I) 25 mg/kg (G2), 24 hrs. after administration) 2.0 ± 0.0; (Compound (I) 25 mg/kg (G2), Pre (before administration)) 1.7 ± 0.2; (Compound (I) 50 mg/kg (G3), 1 hr. after administration) 1.8 ± 0.2; (Compound (I) 50 mg/kg (G3), 4 hrs. after administration) 1.3 ± 0.2. Also, the Dyskinesia score (Compound (I) 50 mg/kg (G3), 24 hrs. after administration) came out at 1.8 ± 0.2 and the Dyskinesia score (Compound (I) 50 mg/kg (G3), Pre (before administration)) is 1.7 ± 0.2. Further, the “Mean value of the dyskinesia scores compared with other groups” value (Compound (I) 50 mg/kg (G3), 4 hrs. after the administration, versus vehicle (G1) and istradefylline (G4)) was “lower as compared with the vehicle-treated group (G1) and the istradefylline-treated group (G4)”.
